Data as given in US20060211575A1, “CONTROL FOR PLANT AND PLANT PRODUCT PATHOGENS” (W. NEUDORFF GMBH KG, priority 2005, published 2006).

Experiments:
Format in all cases: in vivo
[1] = system: rust (Cronartium ribicola); assay: Field test of betaines to control rust on black currants; settings: 0.10% ai, black currant, resprayed every 7 to 10 days
Description: The purpose of this test was to evaluate 6 betaines for controlling rust (Cronartium ribicola) on black currant. Following formation of compositions of Coco betaine, C16 betaine, C18:1 betaine, Coco amidopropyl betaine, C18:1 amidopropyl betaine, and Coco sulfo betaine having varying betaine concentrations (using the commercially available forms of the betaines as discussed herein and a water solvent), and a copper octanoate standard (formed from a commercially available form entitled “Soap Shield” from Gardens Alive, Ind., USA), the compositions/solution were sprayed to run off onto eight-year-old black currants. Every treatment had nine plants, and the plants were resprayed every 7 to 10 days.

[2] = system: powdery mildew (Sphaerotheca fuliginea); assay: Greenhouse test of betaines for controlling powdery mildew on dandelion
Description: The purpose of this test was to evaluate the control of powdery mildew (Sphaerotheca fuliginea) on dandelion (Taraxacum officinale). Compositions of C12 betaine, Coco betaine, C16 betaine, C18:1 betaine, Coco amidopropyl betaine, C18:1 amidopropyl betaine, and Coco sulfo betaine were formed using the commercially available forms of the betaines as disclosed herein. Additionally, a sulfur standard was prepared using a commercially available form of sulfur (Red Ball EM-53) from International Chem. Inc., USA. For each treatment, twelve 20 cm diameter dandelions were used, and at the start of the test, all of the leaves were trimmed off of the plants. The test evaluated disease development on fully formed leaves. Each composition was sprayed to run off the plants, and resprayed 3 times every 7 days. The plants were also reinoculated by placing diseased dandelions amongst the test plants.

[3] = system: rose blackspot (Diplocarpon rosae); assay: Field test of betaines to control blackspot on Altissimo roses; settings: 0.2%
Description: The purpose of this test was to evaluate various betaines for controlling rose blackspot (Diplocarpon rosae) on Altissimo roses under field conditions. Following formation of compositions of cetyl betaine, cocobetaine, and coco amidopropyl betaine using the commercially available forms of the betaines as disclosed herein as well as formation of a standard 0.2% sulfur solution, the compositions/solution were sprayed to run off onto mature Altissimo rose plants. Nine plants were used in each treatment, and the plants were resprayed every 7 to 10 days for over a 100 day period.
Table 1, below, illustrates the results obtained from treatments of cetyl betaine at various concentrations ranging from about 0.020% ai to 0.100% ai, as well as cocobetaine at a 0.05% ai concentration and coco amiodopropyl betaine at a 0.10% ai concentration.

Question: For `CCCCCCCC/C=C\CCCCCCCC[N+](C)(C)CC(=O)[O-]` [C18:1 betaine, oleyl betaine], which “Rust Sori Per 9 Plants” value [1] is on record?
Answer: Its value is 550.

Question: What about the “Leaf Area Colonized by Powdery Mildew (%)” value ([2]; 0.1% ai) of the same molecule?
Answer: The value was 2.3%.

Question: What does the source list for `S1SSSSSSS1` [Sulfur]?
Answer: Leaflets with Blackspot (%) ([3]; 75 DAT): 0.8%; Leaflets with Blackspot (%) ([3]; 102 DAT): 1.5%; Leaf Area Colonized by Powdery Mildew (%) ([2]; 0.2% ai): 0.0%

Question: How did the “Rust Sori Per 9 Plants” value [1] turn out when Copper octanoate [reference compound] was run?
Answer: The value was 135.

Question: `CCCCCCCC/C=C\CCCCCCCC(=O)NCCC[N+](C)(C)CC(=O)[O-]` [C18:1 amidopropyl betaine, oleamidopropyl betaine] was tested. Which “Rust Sori Per 9 Plants” value [1] did it give?
Answer: The value was 2121.

Question: And the “Leaf Area Colonized by Powdery Mildew (%)” value ([2]; 0.1% ai)?
Answer: Its value is 0.9%.
